Measured values taken from ChEMBL document CHEMBL2440099, “N-Alkyl dien- and trienamides from the roots of Otanthus maritimus with binding affinity for opioid and cannabinoid receptors” (Bioorg Med Chem, 2013).

Legend:
[1] = target: Mu-type opioid receptor (Mus musculus, UniProt P42866); experiment: Displacement of [3H]DAMGO from mu opioid receptor in CD1 mouse brain membranes after 1 hr by liquid scintillation counting; type: cell membranes, Membrane
[2] = target: Cannabinoid receptor 2 (Mus musculus, UniProt P47936); experiment: Displacement of [3H]-CP-55940 from cannabinoid CB2 receptor in CD1 mouse spleen membranes after 1 hr by liquid scintillation counting; type: cell membranes, Membrane
[3] = target: Cannabinoid receptor 1 (Mus musculus, UniProt P47746); experiment: Displacement of [3H]-CP-55940 from cannabinoid CB1 receptor in CD1 mouse brain membranes after 1 hr by liquid scintillation counting; type: cell membranes, Membrane
[4] = target: Delta-type opioid receptor (Mus musculus, UniProt P32300); experiment: Displacement of [3H]DPDPE from delta opioid receptor in CD1 mouse brain membranes after 1 hr by liquid scintillation counting; type: cell membranes, Membrane
[5] = organism: Mus musculus; experiment: Selectivity ratio of Ki for cannabinoid CB1 receptor in CD1 mouse brain membranes to Ki for cannabinoid CB2 receptor in CD1 mouse spleen membranes; type: cell membranes
[6] = organism: Mus musculus; experiment: Selectivity ratio of Ki for delta opioid receptor in CD1 mouse brain membranes to Ki for mu opioid receptor in CD1 mouse brain membranes; type: cell membranes

Row | SMILES | Ki [1] [µM] | Ki [2] [µM] | Ki [3] [µM] | Ki [4] [µM] | Ratio Ki [5] | Ratio Ki [6]
1 | C=CC1OC1/C=C/C#CC#CC#CC (centres undefined) | > 50 | > 50 | > 50 | > 50 | – | –
2 | CCCCC/C=C\CC/C=C/C=C/C(=O)N1CCCCC1 | 7.4 | 0.16 | 0.8 | 3.8 | 5 | 0.51
3 | CCCCC/C=C\CC/C=C/C=C/C(=O)NCC(C)C | 7.5 | 0.55 | 1.2 | 7.7 | 2.18 | 1.03
4 | CCCCCCC/C=C/C=C/C(=O)NCC(C)C | 8.2 | 0.9 | 2.6 | 43 | 2.89 | 5.24
5 | CC(C)CNC(=O)/C=C/C=C/C=C/c1cccs1 | 52 | 8.25 | 8.8 | 25.5 | 1.07 | 0.49
6 | O=C(/C=C/C=C/C=C/c1cccs1)N1CCCCC1 | 12.8 | 1.24 | 4.1 | 8 | 3.3 | 0.63
7 | CCCCCCCCC/C=C/C=C/C(=O)N1CCCCC1 | 5.75 | 24 | 6.7 | 6.5 | 0.28 | 1.13
8 | CCCCCCCCC/C=C/C=C/C(=O)NCC(C)C | 51 | 1.17 | 1.4 | 22.5 | 1.2 | 0.44
9 | COc1cc([C@@H]2Oc3c(OC)cc(/C=C/C=O)cc3[C@H]2COC(=O)CC(C)C)ccc1O | 9 | 4.2 | 2.7 | 3.8 | 0.64 | 0.42
10 | CC(C)CCNC(=O)/C=C/C=C/C=C/c1cccs1 | 8.1 | 5 | 2.2 | 26.5 | 0.44 | 3.27
11 | O=C(/C=C/C=C/C=C/c1cccs1)N1C=CCCC1 | 29 | 13.5 | > 50 | 11.5 | – | 0.4
12 | CC(C)CC(=O)OC/C=C\CCNC(=O)/C=C/C=C/C=C/c1cccs1 | 41.5 | 10.2 | 5.6 | 11 | 0.55 | 0.27
